In brackets after ≈: the same amount, converted by molar mass. Read-outs that look alike come from different tables or passages of the source.
Legend:
C. neoformans [1] = test: In vitro susceptibility testing (MIC80); type: cell-based, Cryptococcus neoformans
Protocol: MICs were determined by following the methods of the Clinical and Laboratory Standards Institute (CLSI), with modifications. […] The compounds were serially diluted from 32 to 0.03 μg/ml in a 96-well plate. The inoculum was prepared as described in CLSI protocol M27A3 guidelines ([39]). […] The MICs were determined as the lowest concentration of the compound that inhibited 80% of growth compared to the control.

Caco-2 permeability = conditions: human; for Papp A→B at 2 h, 5 μM / Papp B→A at 2 h, 5 μM: Caco-2, pH 7.4
Protocol: (§1) The Caco-2 permeability studies were performed as follows. (i) For the preparation of Caco cells, 50-μl and 25-ml volumes of cell culture medium were added to each well of the Transwell insert and reservoir, respectively. The HTS Transwell plates then were incubated at 37°C, 5% CO2 for 1 h before cell seeding. […] (ii) For the preparation of stock solutions, 10 mM stock solutions of test compounds were prepared in DMSO. The stock solutions of positive controls were prepared in DMSO at a concentration of 10 mM. Digoxin and propranolol were used as control compounds in this assay. (iii) For the assessment of cell monolayer integrity, medium was removed from the reservoir and each Transwell insert and replaced with prewarmed fresh culture medium. Transepithelial electrical resistance (TEER) across the monolayer was measured using a Millicell epithelial volt-Ohm measuring system (Millipore, USA). The plate was returned to the incubator once the measurement was done. The TEER value was calculated according to the following equation: TEER measurement (ohms) × area of membrane (cm^2) = TEER value (ohm · cm^2). The TEER value should be greater than 230 Ω · cm^2, which indicates a well-qualified Caco-2 monolayer. (iv) The assay was performed as follows. The Caco-2 plate was removed from the incubator and washed twice with prewarmed Hanks' balanced salt solution (HBSS; with 10 mM HEPES, pH 7.4) and then incubated at 37°C for 30 min. The stock solutions of control compounds were diluted in DMSO to get 1 mM solutions and then diluted with HBSS (10 mM HEPES, pH 7.4) to get 5 μM working solutions. The stock solutions of the test compounds were diluted in DMSO to get 1 mM solutions and then diluted with HBSS (10 mM HEPES, pH 7.4) to get 5 μM working solutions. The final concentration of DMSO in the incubation system was 0.5%. To determine the rate of drug transport in the apical to basolateral direction, 75 μl of 5 μM working solution of test compound was added to the Transwell insert (apical compartment), and the wells in the receiver plate (basolateral compartment) were filled with 235 μl of HBSS (10 mM HEPES, pH 7.4). To determine the rate of drug transport in the basolateral to apical direction, 235 μl of 5 μM working solution of test compound was added to the receiver plate wells (basolateral compartment), and then the Transwell inserts (apical compartment) were filled with 75 μl of HBSS (10 mM HEPES, pH 7.4). Time zero samples were prepared by transferring 50 μl of 5 μM working solution to wells of the 96-deep-well plate, followed by the addition of 200 μl cold acetonitrile or methanol containing appropriate IS. The plates were incubated at 37°C for 2 h. At the end of the incubation, 50-μl samples from donor sides (apical compartment for AP→BL flux and basolateral compartment for BL→AP) and receiver sides (basolateral compartment for AP→BL flux and apical compartment for BL→AP) were transferred to wells of a new 96-well plate, followed by the addition of 4 volumes of cold acetonitrile or methanol containing appropriate IS. […] An aliquot of 100 μl of the supernatant was mixed with an appropriate volume of ultrapure water before LC-MS/MS analysis. To determine the Lucifer yellow leakage after a 2-h transport period, a stock solution of Lucifer yellow was prepared in ultrapure water and diluted with HBSS (10 mM HEPES, pH 7.4) to reach a final concentration of 100 μM. One hundred microliters of the Lucifer yellow solution was added to each Transwell insert (apical compartment), followed by filling the wells in the receiver plate (basolateral compartment) with 300 μl of HBSS (10 mM HEPES, pH 7.4). The plates were incubated at 37°C for 30 min, and 80-μl samples were removed directly from the apical and basolateral wells (using the basolateral access holes) and transferred to wells of new 96-well plates.

Caco-2 cell line = test: Caco-2 permeability; conditions: human, Caco-2, 2 h, 5 μM, pH 7.4
Protocol: as §1

[2] = Pharmacokinetic studies (plasma concentration); type: in vivo, mice
Protocol: For i.p. study, BHBM and D13 were dissolved in a mixture of cremophore-ethanol (1:1) to prepare a 10-mg/ml stock solution. The stock solution was diluted in PBS to obtain 200-μg/ml and 400-μg/ml solutions for i.p. administrations in C3H/HeN mice (n = 3). The compounds were administered to control (healthy) mice or immunocompromised mice infected with P. murina at doses of 0.8 mg/kg and 1.6 mg/kg via tail vein injection or intraperitoneal injection in a final volume of 100 μl. The mice were sacrificed and blood samples were collected predose and 0.5, 1, 2, 4, 8, 12, and 24 h after administration into K2EDTA-containing tubes. The samples were centrifuged immediately, and plasma was collected and stored at −80°C until bioanalysis. Plasma samples were extracted using methylene chloride.
Briefly, 50 μl of the plasma sample was taken into a glass vial, and 10 μl of internal standard N′-(3-bromobenzylidene)-4-hydroxybenzohydrazide was added. After the contents of the glass vial were mixed, 1 ml of methylene chloride was added to the vial and the samples were vortex mixed for 30 s, followed by centrifugation for 5 min. Eight hundred microliters of supernatant then was transferred to another tube and evaporated to dryness using a centrifugal evaporator. The residue was reconstituted in 100 μl acetonitrile-water (50:50) solution, mixed, and transferred to mass spectrometry vials. Separation was performed under isocratic reverse-phase chromatographic conditions using a Waters XBridge C18 column (3.5 μm; 2.1 by 100 mm) (Waters, Milford, MA), a Finnigan Surveyor MS pump (Thermo Fisher Scientific), and a Finnigan Micro AS autosampler (Thermo Fisher Scientific).
The mobile phase consisted of water-acetonitrile with 0.1% formic acid (50:50) run at a flow rate of 200 μl/min. Five-microliter aliquots then were analyzed using an LTQ-FT liquid chromatography-tandem mass spectrometer (LC-MS/MS) with the electrospray source in the positive ion mode (Thermo Fisher Scientific). For i.v. and p.o. administration, the formulation consisted of a 0.5-mg/ml solution of PEG 400-DMA (9:1). A volume of 1.21 mg of D13 was dissolved in 0.242 ml of […] (DMA) by vortexing and sonication, and then 2.178 ml of PEG440 was added with vortexing and sonication until a clear solution was obtained. For a 4-mg/ml solution of PEG 400-DMA (9:1), 2.13 mg of D13 was dissolved in 0.053 ml of DMA by vortexing and sonication, and then 0.479 ml of PEG 440 was added with vortexing and sonication until a clear solution was obtained. For i.v. and p.o. administration of BHBM, the formulation consisted of a 0.5-mg/ml solution of 5% DMSO and 5% solutol in water. A volume of 0.98 mg of BHBM was dissolved in 0.098 ml of DMSO with vortexing and sonication. […]

in vitro = conditions: mouse, microsomes; for remaining at 0 h, 2 μM: % remaining at 0 min; for remaining at 0.25 h, 2 μM: % remaining at 15 min; for remaining at 0.5 h, 2 μM: % remaining at 30 min; for remaining at 0.75 h, 2 μM: % remaining at 45 min; for remaining at 1 h, 2 μM: % remaining at 60 min
Protocol: To test for metabolic stability, 40 μl of 10 mM NADPH solution was added to each well of a 96-well plate. The final concentration of NADPH was 1 mM. The mixture was prewarmed at 37°C for 5 min. The negative-control samples were prepared by replacing NADPH solutions with 40 μl of ultrapure H2O. The negative control was used to exclude the misleading factor that resulted from the instability of the chemical itself. Samples with NADPH were prepared in duplicate. Negative controls were prepared in singlet. The reaction was started with the addition of 4 μl of 200 μM control compound or test compound solutions. […] An aliquot of 90 μl of the supernatant was mixed with 90 μl of ultrapure H2O and then used for LC-MS/MS analysis.

C. neoformans [3] = test: In vitro killing assay; conditions: minimum concentration that kills 100% of C. neoformans cells in 48 h
Protocol: C. neoformans cells from a culture grown overnight were washed in PBS and resuspended in YNB buffered with HEPES at pH 7.4. The cells were counted, and 2 × 10^4 cells were incubated with different concentrations of the drugs in a final volume of 10 ml with a final concentration of 0.5% DMSO. The tubes were then incubated at 37°C with 5% CO2 on a rotary shaker at 200 rpm. Aliquots were taken at the time points indicated and diluted, and 100-µl portions were plated onto YPD plates.

C. albicans = test: Mouse model of invasive candidiasis; type: in vivo, mice; conditions: oral gavage 20 mg/kg/day, i.v. infection with 10^4 cells of C. albicans, after 21 days
[4] = target: human ether-a-go-go-related gene (hERG) potassium channel (Homo sapiens, UniProt Q12809); test: hERG patch clamp assay; type: cell-based
Aspergillus fumigatus = test: Mouse model of invasive pulmonary aspergillosis; type: in vivo, mice; conditions: oral 20 mg/kg/day; for lung fungal burden (CFU) of surviving mice: at the endpoint, data not shown; for mice that survived: immunosuppressed mice, after 15 days
Protocol: For survival study, 8-week-old CBA/J (Envigo) male mice were used. They were divided into sets of 10 mice for each treatment or control group. The day prior to infection, the mice were immunosuppressed by using triamcinolone acetonide (1 mg/mouse) subcutaneously ([40]). On day 0, mice were infected intranasally with 20 μl of a suspension containing 2 × 10^4 conidia of A. fumigatus strain Af293 and were treated through gavage with 20 mg/kg/day of BHBM, D13, or voriconazole (as a drug control) in a final volume of 100 μl of 30% PEG in saline buffer. The untreated control group mice received 100 μl of 30% PEG in saline buffer. Mice were fed ad libitum and were given 50% grapefruit juice in place of normal drinking water to avoid the liver metabolism of the drugs ([41]). Mice were monitored every day for discomfort and sacrificed subsequently.

[5] = Cryptococcus neoformans, ChemBridge compounds, Supplementary Table 1, read-out: MIC80
[6] = lowest concentration inhibiting 80% of growth

Sequence of human ether-a-go-go-related gene (hERG) potassium channel (Q12809 whole entry): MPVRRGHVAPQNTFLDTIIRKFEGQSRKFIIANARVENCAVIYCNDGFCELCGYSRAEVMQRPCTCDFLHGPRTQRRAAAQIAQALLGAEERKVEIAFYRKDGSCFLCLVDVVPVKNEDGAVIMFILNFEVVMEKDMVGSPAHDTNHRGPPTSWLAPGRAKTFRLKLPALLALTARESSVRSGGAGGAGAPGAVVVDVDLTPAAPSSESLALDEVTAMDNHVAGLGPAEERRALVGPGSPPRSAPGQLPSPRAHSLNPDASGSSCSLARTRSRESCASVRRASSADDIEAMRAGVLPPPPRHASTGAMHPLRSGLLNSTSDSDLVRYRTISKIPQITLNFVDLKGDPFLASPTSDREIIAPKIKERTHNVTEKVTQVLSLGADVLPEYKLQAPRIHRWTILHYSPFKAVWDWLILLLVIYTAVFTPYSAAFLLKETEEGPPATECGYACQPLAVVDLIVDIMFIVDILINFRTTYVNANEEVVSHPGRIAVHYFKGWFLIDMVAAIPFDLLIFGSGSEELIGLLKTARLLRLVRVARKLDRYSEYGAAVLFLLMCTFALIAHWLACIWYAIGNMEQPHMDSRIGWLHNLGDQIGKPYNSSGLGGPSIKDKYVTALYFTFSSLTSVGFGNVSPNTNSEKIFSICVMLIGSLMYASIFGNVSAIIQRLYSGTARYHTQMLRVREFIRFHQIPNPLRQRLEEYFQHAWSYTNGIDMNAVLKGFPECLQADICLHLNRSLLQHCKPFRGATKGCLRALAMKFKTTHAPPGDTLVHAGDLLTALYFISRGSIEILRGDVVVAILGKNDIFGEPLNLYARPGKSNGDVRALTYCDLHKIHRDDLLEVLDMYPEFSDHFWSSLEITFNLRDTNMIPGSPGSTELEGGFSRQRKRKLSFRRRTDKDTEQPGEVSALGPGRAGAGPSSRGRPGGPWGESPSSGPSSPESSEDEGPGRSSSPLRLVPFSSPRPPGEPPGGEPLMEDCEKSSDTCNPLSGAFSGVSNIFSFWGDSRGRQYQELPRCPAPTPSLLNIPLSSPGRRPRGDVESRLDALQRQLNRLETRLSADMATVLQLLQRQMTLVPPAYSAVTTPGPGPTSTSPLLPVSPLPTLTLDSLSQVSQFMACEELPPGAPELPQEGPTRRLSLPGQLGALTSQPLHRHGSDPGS

Work on `O=C(N/N=C/c1cc(Br)cc(Br)c1O)c1ccc(Br)cc1` [D13] yielded an MIC80 (C. neoformans [1]; [5]) of 0.06 µg/mL (≈ 0.126 µM), an MIC80 (C. neoformans [1]; [6]) of 0.06 µg/mL (≈ 0.126 µM) and a Papp A→B at 2 h, 5 μM (Caco-2 permeability) of 0.13 ×10⁻⁶ cm/s. For the same compound, the Papp B→A at 2 h, 5 μM (Caco-2 permeability) was < 1 ×10⁻⁶ cm/s, the efflux ratio at 2 h, 5 μM (Caco-2 permeability; Caco-2, pH 7.4, Efflux ratio) was < 2 and the recovery at 2 h, 5 μM (Caco-2 permeability; Caco-2, pH 7.4, Recovery AP→BL) was 49.8%. The recovery at 2 h, 5 μM (Caco-2 permeability; Caco-2, pH 7.4, Recovery BL→AP) was 107%, the Efflux ratio (Caco-2 cell line) was 1.74 and the “time up to which detected in plasma” value ([2]; i.p. administration) was ≥ 20 h. The half-life at 2 μM (in vitro) was 88.6 min, the microsomal CLint at 2 μM (in vitro) was 15.7 µL/min/mg and the remaining at 0 h, 2 μM (in vitro; with NADPH) was 100%. It also gave a remaining at 0 h, 2 μM (in vitro; without NADPH) of 100%, a remaining at 0.25 h, 2 μM (in vitro; with NADPH) of 80.8% and a remaining at 0.25 h, 2 μM (in vitro; without NADPH) of 90.7%. The remaining at 0.5 h, 2 μM (in vitro; with NADPH) was 69.3%, the remaining at 0.5 h, 2 μM (in vitro; without NADPH) was 88.1% and the remaining at 0.75 h, 2 μM (in vitro; with NADPH) was 64.6%. It also gave a remaining at 0.75 h, 2 μM (in vitro; without NADPH) of 82.8%, a remaining at 1 h, 2 μM (in vitro; with NADPH) of ~60% and a remaining at 1 h, 2 μM (in vitro; without NADPH) of 80.8%. For the same compound, the “K100*” value (C. neoformans [3]) was 0.5 µg/mL, the mice that survived (C. albicans) was 20% and the IC50 [4] was > 30 µM. The “lung fungal burden (CFU) of surviving mice” value (Aspergillus fumigatus) was “only one D13-treated mouse showed evidence of colonies” and the mice that survived (Aspergillus fumigatus) was 80%.
In the case of `Cc1ccccc1C(=O)N/N=C/c1cc(Br)ccc1O` [BHBM, (E)-N′-(3-bromo-6-hydroxybenzylidene)-2-methylbenzohydrazide], the MIC80 (C. neoformans [1]; [5]) is reported as 1 µg/mL (≈ 3 µM), the MIC80 (C. neoformans [1]; [6]) is reported as 1 µg/mL (≈ 3 µM) and the Papp A→B at 2 h, 5 μM (Caco-2 permeability) is reported as 14.3 ×10⁻⁶ cm/s. It also gave a Papp B→A at 2 h, 5 μM (Caco-2 permeability) of 4.71 ×10⁻⁶ cm/s, a recovery at 2 h, 5 μM (Caco-2 permeability; Caco-2, pH 7.4, Recovery AP→BL) of ~40% and a recovery at 2 h, 5 μM (Caco-2 permeability; Caco-2, pH 7.4, Recovery BL→AP) of ~40%. For the same compound, the “Recovery AP→BL” value (Caco-2 cell line) was 41.88%, the “Recovery BL→AP” value (Caco-2 cell line) was 39.05% and the “time up to which detected in plasma” value ([2]; i.p. administration) was ≤ 4 h. For the same compound, the “time up to which detected in plasma” value ([2]; i.v. injection) was 8 h, the plasma concentration ([2]; i.v., reached within the first hour and remained for about 8 h) was 10 ng/mL and the half-life at 2 μM (in vitro) was 7.33 min. For the same compound, the microsomal CLint at 2 μM (in vitro) was 189 µL/min/mg, the remaining at 0 h, 2 μM (in vitro; with NADPH) was 100% and the remaining at 0 h, 2 μM (in vitro; without NADPH) was 100%. For the same compound, the remaining at 0.25 h, 2 μM (in vitro; with NADPH) was 25.3%, the remaining at 0.25 h, 2 μM (in vitro; without NADPH) was 109% and the remaining at 0.5 h, 2 μM (in vitro; with NADPH) was 4.93%. The remaining at 0.5 h, 2 μM (in vitro; without NADPH) was 89.9%, the remaining at 0.75 h, 2 μM (in vitro; with NADPH) was 1.52% and the remaining at 0.75 h, 2 μM (in vitro; without NADPH) was 86.3%. For the same compound, the remaining at 1 h, 2 μM (in vitro; without NADPH) was 84.1%, the “K100*” value (C. neoformans [3]) was >1 µg/mL and the mice that survived (C. albicans) was 20%. For the same compound, the IC50 [4] was 11.5 µM, the “lung fungal burden (CFU) of surviving mice” value (Aspergillus fumigatus) was “showed evidence of colonies” and the mice that survived (Aspergillus fumigatus) was 30%.
